Assay results published in patent publication US20220411414A1, “INHIBITORS FOR THE B-CATENIN/B-CELL LYMPHOMA 9 (BCL9) PROTEIN-PROTEIN INTERACTION” (H. LEE MOFFITT CANCER CENTER AND RESEARCH INSTITUTE, INC., priority 2018, published 2022).

How the values were obtained:
[1] = tested on: A549; test: MTs growth inhibition assay, A549 (Wnt-latent); format: cell-based; conditions: Homo sapiens, read-out: MTs IC50 ± SD A549
[2] = tested on: FOPFlash (three mutant Tcf4 binding sites) luciferase reporter; test: FOPFlash luciferase reporter assay; format: cell-based; conditions: FIG. 1
Description: Cell transfection and luciferase assay. FuGENE6 (E269A, Promega) 96 well plate format was used for the transfection of HEK293 and SW480 cells according to the manufacturer's instruction. HEK293 cells were co-transfected with 45 ng of TOPFlash or FOPFlash reporter gene, 135 ng pcDNA3.1-β-catenin, and 20 ng of pCMV-RL normalization reporter gene. SW480 cells were co-transfected with 60 ng of the TOPFlash or FOPFlash reporter gene and 40 ng of pCMV-RL normalization reporter. Cells were cultured in DMEM and 10% FBS at 37° C. for 24 h, and different concentrations of inhibitors or DMSO was added. After 24 h, the luciferase reporter activity was measured using the Dual-Glo system (E2940, Promega). Normalized luciferase activity in response to the treatment with 4 and 5 was compared with that obtained from the cells treated with DMSO. Experiments were performed in triplicate.

[3] = target: T1, β-catenin/BCL9 (Homo sapiens, UniProt P35222); test: AlphaScreen competitive inhibition assay, β-catenin/BCL9 PPI; format: binding; conditions: for Ki: AlphaScreen
T1 construct: Full-length β-catenin and (residues 1-781) were cloned into a pET-28b vector carrying a C-terminal 6× histidine; made in house; host or cells: E. coli BL21 DE3
T1 sequence (P35222 1-781): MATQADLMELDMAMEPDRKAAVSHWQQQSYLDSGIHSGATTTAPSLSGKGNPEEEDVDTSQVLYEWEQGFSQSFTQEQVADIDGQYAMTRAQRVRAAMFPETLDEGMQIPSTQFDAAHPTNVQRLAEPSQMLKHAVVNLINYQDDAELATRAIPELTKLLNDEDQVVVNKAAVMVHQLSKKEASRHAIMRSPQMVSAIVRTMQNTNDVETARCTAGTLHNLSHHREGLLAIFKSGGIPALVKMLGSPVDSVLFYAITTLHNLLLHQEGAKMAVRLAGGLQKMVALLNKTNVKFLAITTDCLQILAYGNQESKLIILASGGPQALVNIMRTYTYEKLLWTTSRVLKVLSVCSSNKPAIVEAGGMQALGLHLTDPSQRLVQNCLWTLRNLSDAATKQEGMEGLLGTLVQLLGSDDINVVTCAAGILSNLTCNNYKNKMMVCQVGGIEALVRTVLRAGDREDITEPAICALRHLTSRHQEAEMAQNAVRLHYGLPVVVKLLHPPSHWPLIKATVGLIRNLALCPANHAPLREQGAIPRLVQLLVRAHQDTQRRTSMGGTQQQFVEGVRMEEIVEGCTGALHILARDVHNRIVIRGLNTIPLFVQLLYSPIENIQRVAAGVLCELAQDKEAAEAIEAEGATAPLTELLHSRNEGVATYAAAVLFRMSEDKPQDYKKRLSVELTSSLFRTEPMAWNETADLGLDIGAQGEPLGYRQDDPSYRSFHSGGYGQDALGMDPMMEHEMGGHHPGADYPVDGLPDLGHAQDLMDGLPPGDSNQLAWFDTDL
Excerpt: The biochemical AlphaScreen assay was employed to evaluate the inhibitory potency of these two final products for disruption of the β-catenin/BCL9 PPI.
BCL9 peptide synthesis and purification. Human BCL9 (residues 350-375), N-terminally biotinylated human BCL9 (residues 350-375), human E-cadherin (residues 824-877), and N-terminally biotinylated human E-cadherin (residues 824-877) were synthesized by InnoPep Inc. (San Diego, Calif., www.innopep.com). All synthesized peptides were purified by HPLC with purity >95%. The structures were validated by LC/MS. The sequences are as follows (Ahx, 6-aminohexanoic acid).
For the β-catenin/BCL9 assay, 5 nM of biotinylated BCL9 and 40 nM of His6-tagged β-catenin were incubated in assay buffer at 4° C. for 30 min. For the β-catenin/E-cadherin assay, 10 nM of biotinylated human E-cadherin, and 40 nM of His6-tagged human β-catenin were added and incubated in assay buffer at 4° C. for 30 min. Different concentrations of the tested peptide or inhibitor were added and incubated in 20 μL assay buffer at 4° C. for another 1.5 h. All of the above assay plates were covered and gently mixed on an orbital shaker. The donor and acceptor beads were then added to the plates to a final concentration of 10 μg/mL in 25 μL assay buffer. The mixture was incubated for 1 h at 4° C. before detection. The IC50 value was determined by nonlinear least-square analysis of GraphPad Prism 5.0. The inhibition constant (Ki) values were derived from the IC50 values using a method reported by Nikolovska-Coleska et al (Nikolovska-Coleska, Z.; Wang, R.; Fang, X.; Pan, H.; Tomita, Y.; Li, P.; Roller, P. P.; Krajewski, K.; Saito, N. G.; Stuckey, J. A.; Wang, S. Development and optimization of a binding assay for the XIAP BIR3 domain using fluorescence polarization, Anal. Biochem. 2004, 332, 261-273.). The assays were conducted under the conditions required by Nikolovska-Coleska et al.'s equation for determining the Ki values. All of the experiments were performed in triplicate. The results were expressed as mean±standard deviation. The inhibitor selectivity for, β-catenin/BCL9 over, β-catenin/E-cahderin interactions was defined as the ratio of the respective Ki value of β-catenin/E-cadherin interactions over that of β-catenin/BCL9 interactions.

[4] = tested on: MDA-MB-231; test: MTs growth inhibition assay, MDA-MB-231; format: cell-based; conditions: Homo sapiens, Wnt/β-catenin-hyperactive, 72 h, read-out: MTs IC50 ± SD MDA-MB-231
Description: MTs cancer cell growth inhibition assays were conducted for 4 and 5. Three cancer cell lines with hyperactive Wnt/β-catenin signaling, SW480, HCT116, and MDA-MB-231. MTs cell viability assay. Colorectal cancer cell lines, SW480 and HCT116, and triple-negative breast cancer cell line MDA-MB-231 were seeded in 96-well plates at 4×10^3 cells/well, maintained overnight at 37° C., and incubated in the presence of 4 and 5 at various concentrations. Cell viability was monitored after 72 h using a freshly prepared mixture of 1 part phenazine methosulfate (PMS, Sigma) solution (0.92 mg/mL) and 19 parts 3-(4,5-dimethylthiazol-2-yl)-5-(3-carboxymethoxyphenyl)-2-(4-sulfophenyl)-2H-tetrazolium (MTs, Promega) solution (2 mg/mL). Cells were incubated in 10 μL of this solution at 37° C. for 3 h, and A490 was measured. The effect of each compound is expressed as the concentration required to reduce A490 by 50% (IC50) relative to vehicle-treated cells. Experiments were performed in triplicate.

Cl.Cl.O=C(Nc1ccc(O[C@@H]2CCNC2)c(-c2cccc(-c3nn[nH]n3)c2)c1)c1ccc(O[C@H]2CCNC2)c(-c2ccc(F)c(F)c2)c1 [Compound 4, 3′,4′-difluoro-6-(((S)-pyrrolidin-3-yl)oxy)-N-(6-(((R)-pyrrolidin-3-yl)oxy)-3′-(2H-tetrazol-5-yl)-[1,1′-biphenyl]-3-yl)-[1,1′-biphenyl]-3-carboxamide dihydrochloride]
IC50 [1]: > 400000 nM | FOPFlash luciferase activity [2]: did not inhibit | selectivity for β-catenin/BCL9 over β-catenin/E-cadherin PPIs (in words) ([3]; AlphaScreen biochemical assay): exceptionally high selectivity | Ki ([3]; Table 1, mean ± SD (n = 3)): 470 ± 140 nM | Ki ([3]; Table 2, mean ± SD (n = 3)): 470 ± 140 nM | Selectivity BCL9/cadherin ([3]; ratio of Ki β-catenin/E-cadherin over Ki β-catenin/BCL9): >1900 | IC50 [4]: 73000 ± 8900 nM
